Converted amounts (≈) assume the structure as drawn. Read-outs that look alike come from different tables or passages of the source.
B1: antistasin (protein, UniProt P15358 18-136, looked up)
Antistasin: QGPFGPGCEEAGCPEGSACNIITDRCTCSGVRCRMHCPHGFQRSRYGCEFCKCRLEPMKATCDISECPEGMMCSRLTNKCDCKIDINCRKTCPNGLKRDKLGCEYCECRPKRKLIPRLS

Columns and labels:
Citrated plasma = assay: Measurement of PT (prothrombin time) in citrated plasma; assay type: biochemical; settings: STA-Neoplastine, 37° C., unit not given (2×PT value)
Description: The effect of oxazolidinone derivatives with cyclic amidines represented by Chemical Formula (1) according to the invention on blood coagulation was compared by measuring PT (prothrombin time) and aPTT (activated Partial Thromboplastin Time). The procedure of measurement is described below. Citrated plasma was purchased from Daejeon-Chungnam Blood Institute (located at Daejeon, Korea). A compound solution (5 μL) according to the invention (in a various concentration gradient, 5% DMSO solution) was added to the plasma ([…]), and the reaction was carried out at 37° C. for 5 minutes. STA-Neoplastine (Diagnostica Stago) (100 μL) was then added thereto, and the duration for plasma coagulation was measured. The duration for plasma coagulation is determined as the point when the absorbance at 340 nm reaches 0.1.

plasma = assay: Measurement of aPTT (activated partial thromboplastin time) in plasma; assay type: biochemical; design: unit not given here; settings: STA-PTT, CaCl2, 37° C., unit not given
Description: The effect of oxazolidinone derivatives with cyclic amidines represented by Chemical Formula (1) according to the invention on blood coagulation was compared by measuring PT (prothrombin time) and aPTT (activated Partial Thromboplastin Time). The procedure of measurement is described below. A solution (5 μL) of the oxazolidinone derivative with cyclic amidine group represented by Chemical Formula (1) according to the invention (in a various concentration gradient, 5% DMSO solution) was added to the plasma ([…]), and the reaction was carried out at 37° C. for 2 minutes. STA-PTT (Diagnostica Stago) (50 μL) was then added thereto. After the reaction at 37° C. for additional 5 minutes, 25 mM CaCl2 (50 μL) was added thereto, and the duration for plasma coagulation was measured. The duration for plasma coagulation was determined as the point when the absorbance at 340 nm reaches 0.1.

thrombus formation = assay: % inhibition against thrombus formation, arteriovenous shunt model in white rats; assay type: in vivo, white rats (male Sprague Dawley); design: concentration or dose not given beside the values; settings: orally administered 1 hour before opening of the shunt; 15 minutes circulation; versus control group
Description: 3) Determination of % Inhibition Against Thrombus Formation by Means of Arteriovenous Shunt Model ([…]) in White Rats Antithrombotic effect of the compounds according to the present invention was evaluated by using arteriovenous shunt model in white rats. The animals used were male Sprague Dawleys with the body weight of 200-250 g. For one day before the experiment, the animals were fasted. Five to six animals were used for each test group. The compound of Example was orally administered 1 hour before opening of the shunt. The rats were anesthetized by abdominal administration of Rompun (Bay HealthCare) and Chloral hydrate or urethane in an amount of 12 and 50 mg per kg of the body weight. Into the left carotid artery and right jugular vein of the white rat, a polyethylene(PE)-60 tubing filled with physiological saline was inserted and secured. Both ends of individual PE tubing were connected to a silicone tubing having a length of 5 cm in which a cotton thread have been incorporated diagonally, and the shunt was open to provide circulation for 15 minutes. The shunt was then compressed by using jaws, and the cotton thread was carefully removed and the thrombus generated was weighed. The % inhibition of thrombus formation was calculated by using the weight of thrombus obtained from white rats of the control group to which a solution of oral administration was administered.

[1] = Determination of aqueous solubility; assay type: physicochemical; settings: aqueous with cosolvent or surfactant or cyclodextrin, kinetic from dmso stock; 100 mM potassium phosphate buffer pH 7.4, 5% DMSO, final concentration 500 μM, ambient temperature 90 minutes
Description: The plate was agitated at ambient temperature for 90 minutes with a rate of 225 rpm. After agitation, the content of the plate was filtered with application of pressure. The filtrate (160 μL) was individually transferred to a uv-96 well plate (Costar), and mixed with 40 μL of acetonitrile, and then agitated at ambient temperature for 10 minutes with a rate of 225 rpm. By means of a plate reader (Molecular Devices, Spectramax 190), absorbances at the wavelengths of 280, 300, 320, 340, 360 and 800 nm were measured. As a reference solution, employed was 100 mM potassium phosphate buffer (pH 7.4) containing 20% acetonitrile added by 10 mM DMSO solution (8 μL).

plasma protein = assay: Determination of plasma protein binding (ultrafiltration, LC-MS/MS); assay type: in vitro ADME; settings: citrated plasma, 37° C., 60 minutes, Ultracel-10 filter
Description: Citrated plasma was purchased from Daejeon-Chungnam Blood Institute (located at Daejeon, Korea). A compound solution (500 μM in DMSO) (10 μL), according to the invention Was added to the plasma (1 mL), and the reaction was carried out at 37° C. and 120 rpm for 60 minutes. To three wells of Ultracel-10 filter plate (Millipore), the reaction solution was transferred (300 μL each). Then, the plasma solution (70 μL) was taken, and the total concentration of the compound was quantified by means of LC-MS/MS (API3000, ABI). After centrifuging the Ultracel-10 filter plate at 37° C. and 2000×g for 45 minutes, the filtrate was taken to determine the concentration of the compound which was not bound to the plasma protein. Percentage of plasma protein binding was obtained via Equation (2): % Protein binding=(1−concentration of compound in filtrate/concentration of compound in entire solution)×100% Free=100−% Protein binding [Equation 2]

[2] = background art; cited from earlier work
factor Xa [3] = biological target: T1, factor Xa (Homo sapiens, UniProt P00742); settings: background art; cited from earlier work
T1 construct: purchased Enzyme Research Laboratories
T1 sequence (P00742 235-488 limits assumed): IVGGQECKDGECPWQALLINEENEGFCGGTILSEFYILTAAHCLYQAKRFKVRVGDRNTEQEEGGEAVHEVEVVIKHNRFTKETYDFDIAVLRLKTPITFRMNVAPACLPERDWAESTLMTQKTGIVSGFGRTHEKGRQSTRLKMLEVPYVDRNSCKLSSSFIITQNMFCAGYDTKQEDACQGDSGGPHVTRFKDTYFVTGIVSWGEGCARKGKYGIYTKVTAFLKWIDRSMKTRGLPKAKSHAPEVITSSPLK
T1 sequence (P00742 41-179 partner limits assumed): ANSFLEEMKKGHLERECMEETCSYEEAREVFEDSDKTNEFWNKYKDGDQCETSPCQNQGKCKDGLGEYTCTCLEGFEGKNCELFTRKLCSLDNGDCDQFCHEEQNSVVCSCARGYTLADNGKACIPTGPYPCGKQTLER

factor Xa [4] = biological target: T1, factor Xa; assay: Inhibiting activity of factor Xa inhibitor (chromogenic substrate S-2765); assay type: biochemical; settings: calculated from IC50 by Equation 1, Km 125 μM; S-2765 substrate, pH 7.8, 37° C.; read-out: Ki (nM), factor Xa inhibition constant
Description: Relative rate of hydrolysis (as compared to control group without inhibition) was plotted versus logarithm of the concentration of the oxazolidinone derivative with a cyclic amidine represented by Chemical Formula (1) according to the invention, to obtain the concentration of the inhibitor for 50% decrease in the rate of hydrolysis of the substrate.
The inhibition constant can be obtained by spectrophotometry whereby the color development is determined as a function of time, after being reacted with a specific substrate which develops color upon hydrolysis caused by action of factor Xa.
For the inhibitor solution, the inhibitor compound according to the present invention was diluted with dimethylsulfoxide (DMSO) in 10 mM, and then further diluted with third-distilled water (finally 10% DMSO solution), and the solution (10 μL) was added to each well. […] The substrate solution (20 μL) thus prepared was added to each well.
Kinetic analysis of the reaction was performed by a kinetic plate reader (Molecular Devices, Spectramax 190) at 37° C. for 20 minutes.
Relative rate of hydrolysis (compared to control group without inhibition) versus logarithm of the oxazolidinone derivative with a cyclic amidine group (Chemical Formula I) was plotted to obtain the concentration of the inhibitor to decrease the rate of hydrolysis of the substrate by 50%. GraFit (version 5.0.12) program for statistical process purchased from Erithacus Software was employed.
When inhibition constant Ki is calculated, it can be calculated according to Equation (1).

Molecule	PT (Citrated plasma)	APTT (plasma)	% Inhibition (of thrombus formation) (thrombus formation)	solubility at 90 min [1]	Plasma protein binding (% Free) (plasma protein)	solubility [2]	Ki (factor Xa [3])	Ki (factor Xa [4])
O=C(NC[C@H]1CN(c2ccc(N3CCOCC3=O)cc2)C(=O)O1)c1ccc(Cl)s1 [Rivaroxaban, reference compound]	0.09	0.39	83%	50 µM (≈ 21.8 µg/mL)	9 % Free	about 8 mg/L		
tick anticoagulant peptide (YNRLCIKPRDWIDECDSNEGGERAYFRNGKGGCDSFWICPEDHTGADYYSSYRDCFNACI; UniProt P17726 1-60, looked up) [TAP]							0.5 nM	
CN1CCN=C1c1ccc(N2C[C@H](CNC(=O)c3ccc(Cl)s3)OC2=O)cc1 [Compound 101, 5-chlorothiophene-2-carboxylic acid {(S)-3-[4-(1-methyl-4,5-dihydro-1H-imidazol-2-yl)-phenyl]-2-oxo-oxazolidin-5-ylmethyl}-amide]	0.05	0.22	2%	434 µM (≈ 182 µg/mL)	23 % Free			2.97 nM
CCN1CCN=C1c1ccc(N2C[C@H](CNC(=O)c3ccc(Cl)s3)OC2=O)cc1 [Compound 102, 5-chlorothiophene-2-carboxylic acid {(S)-3-[4-(1-ethyl-4,5-dihydro-1H-imidazole-2-yl)-phenyl]-2-oxo-oxazolidin-5-ylmethyl}-amide]	0.04	0.17	26%	462 µM (≈ 200 µg/mL)	28 % Free			3.43 nM
O=C(NC[C@H]1CN(c2ccc(C3=NCCN3)cc2)C(=O)O1)c1ccc(Cl)s1 [Compound 100, 5-chlorothiophene-2-carboxylic acid {(S)-3-[4-(4,5-dihydro-1H-imidazol-2-yl)-phenyl]-2-oxo-oxazolidin-5-ylmethyl}-amide]	0.22	2.29	40%	441 µM (≈ 179 µg/mL)	17 % Free			47 nM
O=C(NC[C@H]1CN(c2ccc(N3CCN=C3C3CC3)cc2)C(=O)O1)c1ccc(Cl)s1 [Compound 117]	0.04	0.29	68%	484 µM (≈ 215 µg/mL)	17 % Free			3.18 nM
O=C(NC[C@H]1CN(c2ccc(N3CCN=C3c3ccco3)cc2)C(=O)O1)c1ccc(Cl)s1 [Compound 123]	0.07	0.26	71%	474 µM (≈ 223 µg/mL)	3 % Free			0.39 nM
Cc1ccc(C2=NCCN2c2ccc(N3C[C@H](CNC(=O)c4ccc(Cl)s4)OC3=O)cc2)s1 [Compound 131]	0.08	0.39	0%					0.69 nM
O=C(NC[C@H]1CN(c2ccc(N3CCN=C3c3ccoc3)cc2)C(=O)O1)c1ccc(Cl)s1 [Compound 124]	0.07	0.26	52%					1.71 nM
CC1=NCCN1c1ccc(N2C[C@H](CNC(=O)c3ccc(Br)s3)OC2=O)cc1 [Compound 138]	0.04	0.16	27%					2.38 nM
CN1CCCN=C1c1ccc(N2C[C@H](CNC(=O)c3ccc(Cl)s3)OC2=O)cc1 [Compound 107, 5-chlorothiophene-2-carboxylic acid {(S)-3-[4-(1-methyl-1,4,5,6-tetrahydropyrimidine-2-yl)-phenyl]-2-oxo-oxazolidin-5-ylmethyl}-amide]	0.09	0.28	50%	411 µM (≈ 178 µg/mL)	31 % Free			5.7 nM
B1							0.05 nM	

— patent US8288423B2, “FXa inhibitors with cyclic amidines as P4 subunit, processes for their preparations, and pharmaceutical compositions and derivatives thereof” (Legochem Bioscience Ltd., priority 2007, dated 2012)
